Data taken from patent US6576614B1, “Peptide analogs as irreversible interleukin-1β protease inhibitors” (Vertex Pharmaceuticals Incorporated, priority 1993, dated 2003).

How the values were obtained:
IL-1β protease = molecular target: T1, IL-1β protease (Homo sapiens, UniProt P29466); experiment: IL-1β protease inhibition activity (HPLC assay, substrate TRITC-AYVHDAPVRS-NH2); type: biochemical; details: partially purified IL-1β protease; 15 min preincubation with inhibitor at 37° C., 60 min reaction
T1 construct: Partially purified IL-1β protease is stored at −80° C
T1 sequence (P29466 120-297 limits assumed): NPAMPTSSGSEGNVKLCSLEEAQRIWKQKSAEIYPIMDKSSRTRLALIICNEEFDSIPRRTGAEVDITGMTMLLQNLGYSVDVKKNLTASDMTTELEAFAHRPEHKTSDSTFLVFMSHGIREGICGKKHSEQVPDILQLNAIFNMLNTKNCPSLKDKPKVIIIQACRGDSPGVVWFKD
T1 sequence (P29466 317-404 limits assumed): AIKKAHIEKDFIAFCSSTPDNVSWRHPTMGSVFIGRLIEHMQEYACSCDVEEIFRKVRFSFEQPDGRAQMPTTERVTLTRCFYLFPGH
Experimental: Compounds of the present invention were tested for IL-1β protease inhibition activity according to the following protocol:
Partially purified IL-1β protease is stored at −80° C., thawed on ice, and preincubated for 10 minutes at 37° C. with 2.5 mM dithiothreitol in a buffer solution containing 10 mM Tris-HCl (pH 8.0) and 25% (v/w) glycerol. Inhibitors are prepared as stock solutions in dimethyl sulfoxide (DMSO). The protease is preincubated with inhibitor in a volume of […] in a 1.5 ml polypropylene microcentrifuge tube for 15 minutes at 37° C. The volume of compound added to the assay is adjusted to yield a DMSO concentration in the preincubation of <15% (v/v). The enzyme assay is then initiated by the addition of substrate (TRITC-AYVHDAPVRS-NH2) to yield a final concentration of […] in a final volume of […]. The reaction are carried out for 60 minutes at 37° C. in the dark and are terminated by the addition of […] of 10% trifluoroacetic acid (TFA). Following the addition of […] of 0.1% TFA, the samples are analyzed by high pressure liquid chromatography using a reverse phase (C18) column and elution with an acetonitrile/water/FA gradient. Substrate and product are monitored by their absorbance at 550 nm and elute at 4.2 and 5.2 minutes, respectively.

[1] = system: mature IL-1β release from human monocytes; experiment: Release of mature IL-1β from human monocytes (pulse chase assay); type: cell-based; details: inhibition of release of mature IL-1β; human monocytes activated with fixed S. aureus; 2-3 donors; read-out: in vivo IC50
Experimental: Compounds of the present invention were tested for their ability to block mature IL-1β release from cells (monocytes) as described in the following protocol:
Protocol for Monitoring Release of Mature IL-1β-From Human Monocytes
Human monocytes were isolated from heparinized leukopheresis units obtained through Biological Specialty Corporation (Lansdale, Pa.). Monocytes were purified by Ficoll-Hupaque (Pharmacia Fine Chemicals, Piscataway, N.J.) gradient centrifugation and more than 95% pure monocyte populations obtained by centrifugal elutriation. The assay was performed on duplicate samples of freshly isolated human monocytes, cultured in suspension at 37° C. and rotated gently in conical bottom polypropylene tubes (Sardstedt Inc., Princeton, N.J.). Human monocytes at a concentration of 5×10^6 cells/mL were resuspended in 1 mL of RPMI 1640 (a common tissue buffer from M.A. Bioproducts, Walkersyille, Md.) containing 1% fetal calf serum (FCS) (HyClone, Logan, Utah) and 50 μg/mL gentamycin (Gibco, Grand Island, N.Y.). The cells were treated either with a compound of the invention (i.e. test compound) or with a non-inhibitor (control compound, typically 0.03% DMSO) for 15 minutes and then activated with 0.01% fixed Staphylococcus aureus (The Enzyme Center, Malden, Mass.) for 1 hour. The cells were then centrifuged and resuspended in 1 mL of cysteine, methionine-free RPMI media containing 1% dialyzed FCS (Hyclone). The cells were pretreated with a test compound or control compound for 15 minutes after which 0.01% fixed S. aureus plus 100 μCi Tran 35-S label (ICN, Irvine, Calif.) was added and the cells incubated at 37° C. for 1 hour. After incubation, cells were centrifuged, washed once in phosphate buffer saline and resuspended in 1 ML RPMI containing 1% fetal calf serum The cells were again pretreated with a test or control compound for 15 minutes and then 0.01% S. aureus for 2 hours. At the end of the incubation, cells were centrifuged and supernates saved for immunoprecipitation. Cells were washed once in phosphate buffer saline and then lysed in RIPA, a continuous cell media buffer containing 2 mM phenylmethylsulfonyl fluoride, 10 mM iodoacetate, 1 μg/mL pepstatin A, 1 μg/mL leupeptin and 0.5 TIU aprotinin.
For the immunoprecipitations, an equal volume of 1% dry milk in RIPA buffer plus 50 μL of resuspended protein A sepharose CL-4B (Pharmacia, Piscataway, N.Y.) was added to supernates and 1 mL of 4% dry milk containing protein A sepharose CL-4B to cell lysates and samples rotated for 30 minutes at 4° C. Beads were then centrifuged down, samples transferred to fresh tubes and incubated overnight with 40 μg rabbit antihuman IL1B polyclonal antibody (Genzyme, Cambridge, Mass.). The IL-1β proteins were then precipitated with 70 μL protein A sepharose, resuspended in 60 μL SDS sample buffer and run on 15% […] gels. Autoradiography was performed on dried gels and the amount of radioactivity (counts per minute, cpm) quantitated using a Betascope 603 analyzer.
In the monocyte pulse chase assay, each test parameter was run in duplicate. Data was collected from the Beta Scope using a personal computer, then transferred to the VAX system for calculation of mean cpm and standard deviation of the mean. When test compounds were evaluated, the percent inhibition of release of mature IL1β was calculated as follows:
100×[1−(cells treated with stimuli+test compound−unstimulated cells)/(cells teed with stimuli+control compound−unstimulated cells)]
These % inhibition values were then used to calculate IC50 value for each compound. Since the human monocyte pulse chase assay uses primary cells from different donors, each test compound was run in 2-3 separate experiments, using monocytes from 2-3 different donors.

Molecule | IC50 (IL-1β protease) | IC50 [1] | melting point
COC(=O)N[C@@H](Cc1ccccc1)C(=O)N[C@@H](CC(=O)O)C(=O)COC(=O)c1c(Cl)cccc1Cl [Example 57, N-Methoxycarbonyl-L-phenylalanine-L-aspartic acid 2,6-dichlorobenzoyloxymethyl ketone] | 0.07 µM |  | 
N-Methoxycarbonyl-L-valine-L-aspartic acid 2,6-dichlorobenzoyloxy-methyl ketone [Example 59] |  | 10 µM | 
NC(=O)CNS(=O)(=O)c1ccc(Cl)c(C(=O)OCC(=O)[C@H](CC(=O)O)NC(=O)OCc2ccccc2)c1Cl [Example 52, N-Benzyloxycarbonyl-L-aspartic acid 3-(N-[2-aminoacetamidoyl]sulfonamido)-2,6-dichlorobenzoyloxymethyl ketone] | 0.06 µM |  | 54 to 56 °C
CN(C)Cc1ccc(C(=O)N[C@@H](CC(=O)O)C(=O)COC(=O)c2c(Cl)cccc2Cl)cc1 [Example 68, N-(4-N,N-dimethylaminomethyl)benzoyl-L-aspartic acid 2,6-dichlorobenzoyloxymethyl ketone] | 0.3 µM |  | 55 to 57 °C
O=C(O)C[C@H](NC(=O)c1ccco1)C(=O)COC(=O)c1c(Cl)cccc1Cl [Example 64, N-(2-Furonyl)carbonyl-L-aspartic acid 2,6-dichlorobenzoyloxymethyl ketone] | 0.14 µM |  | 
O=C(O)C[C@H](NC(=O)OCc1ccccc1)C(=O)COC(=O)c1c(Cl)ccc(S(=O)(=O)N2CCOCC2)c1Cl [Example 53, N-Benzyloxycarbonyl-L-aspartic acid 2,6-dichloro-3-(N-morpholinylsulfonamido)benzoyloxymethyl ketone] | 0.09 µM |  | 
CC(C)[C@H](NC(=O)OCc1ccccc1)C(=O)N[C@@H](C)C(=O)N[C@@H](CC(=O)O)C(=O)COC(=O)c1c(Cl)cccc1Cl [Example 63, N-Benzyloxycarbonyl-L-valine-L-alanine-L-aspartic acid 2,6-di-chlorobenzoyloxymethyl ketone] |  | 0.5 µM | 
CC(C)[C@H](NC(=O)OCc1ccccc1)C(=O)N[C@@H](CC(=O)O)C(=O)COC(=O)c1c(Cl)cccc1Cl [Example 61, N-Benzyloxycarbonyl-L-valine-L-aspartic acid 2,6-dichlorobenzoyloxy-methyl ketone] |  | 0.9 µM | 
COC(=O)N[C@@H](C)C(=O)N[C@@H](CC(=O)O)C(=O)COC(=O)c1c(Cl)cccc1Cl [Example 54, N-Methoxycarbonyl-L-alanine-L-aspartic acid 2,6-dichlorobenzoyloxymethyl ketone] | 0.06 µM |  | 

Now from value to molecule, other results behind:

IC50 (IL-1β protease) | IC50 [1] | Molecule | melting point
 | 5 µM | CCN(CC)S(=O)(=O)c1c(F)c(F)c(OCC(=O)[C@H](CC(=O)O)NC(=O)[C@@H](NC(=O)OCc2ccccc2)C(C)C)c(F)c1F [Example 71, N-Benzyloxycarbonyl-L-valine-L-aspartic acid 4-(N,N-diethyl-sulfonamido)-2,3,5,6-tetrafluorophenoxymethyl ketone] | 
 | ~100 µM | O=C(O)C[C@H](NC(=O)OCc1ccccc1)C(=O)COC(=O)c1c(F)cccc1F [Example 48, N-Benzyloxycarbonyl-L-aspartic acid 2,6-difluorobenzoyloxymethyl ketone] | 
0.09 µM |  | CCCCNS(=O)(=O)c1ccc(Cl)c(C(=O)OCC(=O)[C@H](CC(=O)O)NC(=O)OCc2ccccc2)c1Cl [Example 49, N-Benzyloxycarbonyl-L-aspartic acid 3-(N-butylsulfonamido)-2,6-dichlorobenzoyloxymethyl ketone] | 48 to 50 °C
 | 30 µM | O=C(O)C[C@H](NC(=O)c1ccco1)C(=O)COC(=O)c1c(Cl)ccc(S(=O)(=O)N2CCOCC2)c1Cl [Example 65, N-(2-Furonyl)carbonyl-L-aspartic acid 2,6-dichloro-3-(N-morpholinylsulfonamido)benzoyloxymethyl ketone] | 
0.08 µM |  | N-Methoxycarbonyl-L-aspartic acid 2,6-dichlorobenzoyloxymethyl ketone [Example 67] | 
 | 10 µM | O=C(O)C[C@@H](NC(=O)OCc1ccccc1)C(=O)COC(=O)c1c(Cl)cccc1Cl [Example 69, N-Benzyloxycarbonyl-D-aspartic acid 2,6-dichlorobenzoyloxymethyl ketone] | 
0.32 µM |  | O=C(O)C[C@H](NC(=O)OCc1ccccc1)C(=O)COc1ccc(S(=O)(=O)N2CCOCC2)cc1F [Example 42, N-Benzyloxycarbonyl-L-aspartic acid 2-fluoro-4-(N-morpholinylsulfonamido)phenoxymethyl ketone] | 65 to 66 °C
0.1 µM |  | O=C(O)C[C@H](NC(=O)OCc1ccccc1)C(=O)COC(=O)c1c(C(F)(F)F)cccc1C(F)(F)F [Example 40, N-Benzyloxycarbonyl-L-aspartic acid 2,6-ditrifluoromethyl benzoyloxymethyl ketone] | 
 | ~100 µM | COc1cccc(OC)c1C(=O)OCC(=O)[C@H](CC(=O)O)NC(=O)OCc1ccccc1 [Example 45, N-Benzyloxycarbonyl-L-aspartic acid 2,6-dimethoxybenzoyloxy methyl ketone] | 
0.1 µM |  | O=C(O)C[C@H](NC(=O)OCc1ccccc1)C(=O)COc1c(Cl)cccc1Cl [Example 41, N-Benzyloxycarbonyl-L-aspartic acid 2,6 dichlorophenoxymethyl ketone] | 
0.2 µM |  | O=C(O)C[C@H](NC(=O)COC(=O)c1c(Cl)cccc1Cl)C(=O)COC(=O)c1c(Cl)cccc1Cl [Example 70] | 
0.05 µM | 10 µM | O=C(O)C[C@H](NC(=O)OCc1ccccc1)C(=O)COC(=O)c1c(Cl)cccc1Cl [Example 38, N-benzyloxycarbonyl-L-aspartic acid 2,6-dichlorobenzoyloxymethyl ketone] | 
